Where two headings read alike, the source gives them in different places.

This note sets out measurements from patent US9796700B2 (Celgene CAR LLC, priority 2013, dated 2017).

The subject of one test is HT-29 cells. Nature of the test: Measurement of inhibition of cancer cell proliferation (CellTiterGlo). Conditions: Homo sapiens, 72 hours. It counts as cell-based. On the procedure:
Measurement of Inhibition of Cancer Cell Proliferation
HT-29 cells were split and 3000 cells in 100 μl of growth medium were added per well of a flat-bottom 96-well plate. A two-fold test compound solution in serum-free RPM1640 was made, starting at 5,000 nM. Then, 3-fold serial dilutions were made across the plate from well 1 to well 11. Well 12, the last well in a row on the plate, was left as untreated control. 100 μl compound solutions were then transferred to the wells, so the total volume of media was 200 μl per well. Plates were returned to a 37° C. incubator, and the cells were cultured for 72 hours. To measure cell proliferation after 72 hours, media was discarded from the plates, 50 μl/well of fresh medium was added, and 50 μl CellTiterGlo solution was added (Promega Cat#G7573). The plate was covered with a dark lid and incubated for 10 min. A sealing tape was applied to the bottom of the plate, and the plate was read in a luminescence plate reader. […] A 2-fold serial dilution was used to generate 8 cell densities from 50,000-390 cells per well in 50 μl media. 50 μl CellTiterGlo was added per well, and the plate was read in a luminescence plate reader after 10 min. The reading was plotted vs. cell number to generate a standard curve and the equation of the curve fit. The compound-treated sample luminescence readings were converted to cell numbers using the equation. The percent of inhibition, using untreated control as 100% growth, was then calculated. GI50 was then calculated by GraphPad Prism.
On the technique in general: ATP-based viability assays read luminescence as a measure of living cells.

Test [1] deals with T1, Erk1 (Homo sapiens (Human), UniProt P27361). Nature of the test: Protein Mass Modification Assay (intact protein MALDI). It counts as binding. The essentials: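 Human Erk1 was incubated 60 min at room temperature with a 10-fold molar excess of compound, then analysed as intact protein by MALDI with sinapinic acid matrix. The centroid mass shift versus untreated protein was divided by compound molecular weight to give percent modified protein.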
Target sequence in this assay (P27361 whole entry, looked up): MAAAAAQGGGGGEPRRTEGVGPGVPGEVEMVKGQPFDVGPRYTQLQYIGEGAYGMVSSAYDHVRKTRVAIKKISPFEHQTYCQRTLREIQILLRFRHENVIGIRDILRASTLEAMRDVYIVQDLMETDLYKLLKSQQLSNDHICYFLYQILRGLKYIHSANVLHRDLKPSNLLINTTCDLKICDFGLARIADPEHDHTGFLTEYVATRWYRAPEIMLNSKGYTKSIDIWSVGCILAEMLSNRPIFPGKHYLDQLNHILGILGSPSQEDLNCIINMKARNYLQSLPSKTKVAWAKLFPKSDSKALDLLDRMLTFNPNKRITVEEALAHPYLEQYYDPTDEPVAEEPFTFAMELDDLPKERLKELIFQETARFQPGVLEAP

The test system of test [2] is ERK1 phosphorylation of its substrate RSK in HT29 cells. Nature of the test: pRSK MSD Assay in HT29 cells. The class given is cell-based. Conditions: Homo sapiens. The procedure:
The protocol below describes an assay to measure the kinase activity of ERK1 to phosphorylate its substrate, RSK, in the presence of a test compound. This experiment was conducted using a Mesoscale Discovery plate. The day before the assay, HT29 cells were split and plated at 50,000 cells/well in complete growth media. After allowing cells to adhere, the media was removed and replaced with media containing 0.1% FBS and incubated overnight. Blank MDS plates were coated with 25 μl/well RSK capture antibody and incubated at 4° C. overnight. The next day, the media was removed and replaced with 100 μl of media containing a test compound and incubated for 120 minutes at 37° C. The media was removed and replaced with 55 μl of well lysis buffer with protease and phosphatase inhibitors provided in the kit, followed by incubation at 4° C. for 30 minutes. 50 μl of lysate was transferred to a blocked MSD plate, followed by incubation at room temperature for 2 hours under constant shaking. The plate was washed 3 times with MSD wash buffer (cat#R617TX), and 25 μl/well phospho-RSK (pRSK) detection antibody was added with an appropriate Sulfo-tagged anti-species detection antibody diluted in 1% BSA in MSD wash buffer. This mixture was incubated for 1 hour at room temperature under constant shaking. The plate was washed 3 times, and 150 μl 1×MSD read buffer was added, followed by signal detection in an MSD plate reader.

Test [3] deals with T1, Erk1. Nature of the test: Measurement of Erk occupancy with biotinylated covalent probe I-299. It counts as cell-based. Conditions: HT-29 cells. On the procedure:
Measurement of Erk Occupancy with Biotinylated Covalent Probe
This experiment measured occupancy of the ERK1 target by compounds according to the invention. This experiment was conducted using the Mesoscale Discovery test kit (Cat. #N45107B). One day before the assay, cells were split and added at 50,000 cells per well to a flat-bottom 96 well plate in 200 μl of growth medium. The next day, the medium was discarded, 100 μl medium containing test compound was added, and the plate was incubated at 37° C. for 120 minutes. The plate was rinsed once with PBS, and 50 μl lysis buffer with test compound was added. The plate was incubated at 4° C. for 30 min, and 30 μl of lysate was transferred to a plate to capture total and phosphor-Erk. Biotinylated probe I-299 was diluted in lysis buffer and added to each well to a final concentration of 0.2 μM. The plate was incubated for 2 hr under constant shaking at room temperature. The plate was washed 3 times with MSD wash buffer. To detect the biotinylated probe bonding, tagged streptavidin was added (MSD, Cat#R32AD-1) at 1 μg/ml, 25 μl/well, followed by a 60 min incubation under shaking. The plate was washed 3 times, 150 μl MSD Read Buffer (Cat#R61TX) was added and the plate was read in a plate reader manufactured by MSD. Percent occupancy by test compound at Erk was calculated by comparing the chemiluminescence readings from treated cells as compared to the chemiluminescence readings in untreated controls (which are defined as 100% probe bonding or 0% occupancy). The amount of covalent probe signal divided by the amount of ERK signal for samples with no test compound treatment represents the maximum probe signal (MPS). In samples treated with test compound prior to covalent probe, the ratio of probe signal to ERK signal (the test probe signal, TPS) was reduced by the degree of target occupancy by the test compound which blocks covalent probe binding. The difference between the MPS and the TPS, divided by the MPS gave the target occupancy by the test compound. This ratio was then expressed as a percent occupancy. Results from this assay are provided in Table A below under the column “Occupancy EC50 (nM) HT-29.”
Target sequence in this assay (P27361 2-379 limits assumed): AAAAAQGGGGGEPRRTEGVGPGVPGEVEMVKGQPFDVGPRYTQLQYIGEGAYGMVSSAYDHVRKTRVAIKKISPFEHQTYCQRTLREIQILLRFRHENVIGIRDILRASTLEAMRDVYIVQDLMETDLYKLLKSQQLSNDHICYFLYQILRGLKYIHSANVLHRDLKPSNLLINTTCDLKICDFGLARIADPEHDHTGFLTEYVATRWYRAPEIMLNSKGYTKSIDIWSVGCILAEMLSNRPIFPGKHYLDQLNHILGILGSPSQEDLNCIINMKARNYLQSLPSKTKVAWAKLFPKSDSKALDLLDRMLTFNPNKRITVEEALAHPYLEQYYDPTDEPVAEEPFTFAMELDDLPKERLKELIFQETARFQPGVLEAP

For another test, the target named is MEK1 activated ERK1 (Homo sapiens (Human), UniProt P27361). Nature of the test: Omnia continuous-read kinase assay for potency against MEK1 activated ERK1. Conditions: MEK1 activated ERK1, WT, ATP at KM. It counts as biochemical. The essentials:
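Apparent IC50 came from initial reaction slopes (RFU vs time) plotted against log inhibitor with a variable-slope fit. Reactions were started with ERK1 (4 nM final) added to 50 μM ATP, roughly at its appKM, and 10 μM Sox-conjugated ST17 peptide in 20 mM Tris pH 7.5, 5 mM MgCl2. Fluorescence was monitored every 71 seconds.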

The mark [4] stands for this setting: HT-29, HT29 cells, read-out: ERK1 PRSK MSD HT29 EC50.
The mark [5] stands for this setting: HT-29, read-out: ERK1 PRSK MSD HT29 EC50 (nM).

Sequence of MEK1 activated ERK1 (P27361 whole entry): as the sequence (P27361 whole entry, looked up) above

As for `C=CC(=O)Nc1ccccc1Nc1nc(N[C@H]2CC[C@H](OC)CC2)ncc1Cl` [Compound I-100], the GI50 with HT-29 cells was above 1000 nM. Also, the “ERK1 Mass Mod (%)” value at Erk1 [1] is listed as “F (provided a mass modification of 31-69%)”. For the same compound, the EC50 in test [2] (setting [4]) was in the range of 501 to 999 nM.

For the compound `C=CC(=O)N(C)c1ccccc1Nc1nc(N[C@H]2CC[C@H](O)CC2)ncc1Cl` [Compound I-104, N-(2-((5-chloro-2-(trans-(4-hydroxycyclohexyl)amino)pyrimidin-4-yl)amino)phenyl)-N-methylacrylamide], the concentration for 50% growth inhibition (GI50) in the test with HT-29 cells was in the range of 501 to 999 nM. In addition, the “ERK1 Mass Mod (%)” value at Erk1 [1] is “E (provided a mass modification of ≧70%)”. Also, the EC50 in test [2] (setting [4]) lay in the range of 501 to 999 nM.

With `C=CC(=O)Nc1cc(F)ccc1Nc1nc(Nc2cc(C(N)=O)ccc2C)ncc1Cl` [Compound I-206, 3-((4-((2-acrylamido-4-fluorophenyl)amino)-5-chloropyrimidin-2-yl)amino)-4-methylbenzamide], the “ERK1 Mass Mod (%)” value at Erk1 [1] is “E (provided a mass modification of ≧70%)”. In addition, the EC50 at Erk1 [3] was below 100 nM. Further, the IC50 on MEK1 activated ERK1 was below 100 nM.

`C=CC(=O)Nc1cc(C)ccc1Nc1nc(Nc2nc(OC)ncc2C(F)(F)F)ncc1C(F)(F)F` [Compound I-355, N-(2-((2-((2-methoxy-5-(trifluoromethyl)pyrimidin-4-yl)amino)-5-(trifluoromethyl)pyrimidin-4-yl)amino)-5-methylphenyl)acrylamide] yielded a GI50 in the test on HT-29 cells of 101 to 500 nM. Further, the “ERK1 Mass Mod (%)” value at Erk1 [1] was “E (provided a mass modification of ≧70%)”. For the same compound, the EC50 in test [2] (setting [4]) is below 100 nM.

Consider `C=CC(=O)Nc1ccccc1Nc1nc(N[C@@H]2CCC[C@H](C(N)=O)C2)ncc1C(F)(F)F` (racemic) [Compound I-2, Rac-cis-3-((4-((2-acrylamidophenyl)amino)-5-(trifluoromethyl)pyrimidin-2-yl)amino)cyclohexanecarboxamide], for which the “ERK1 Mass Mod (%)” value on Erk1 [1] is recorded as “E (provided a mass modification of ≧70%)”. This compound also displayed a concentration giving a half-maximal response (EC50) on Erk1 [3] below 100 nM.

`C=CC(=O)Nc1cc(F)ccc1Nc1nc(N[C@H]2CC[C@@H](F)CC2)ncc1C(F)(F)F` [Compound I-8, N-(5-fluoro-2-((2-((cis-4-fluorocyclohexyl)amino)-5-(trifluoromethyl)pyrimidin-4-yl)amino)phenyl)acrylamide] returned a GI50 in the test on HT-29 cells of 501 to 999 nM. Also, the “ERK1 Mass Mod (%)” value at Erk1 [1] was “E (key: E: provided a mass modification of ≧70%; F: provided a mass modification of 31-69%; G: proived a mass modification ≦30%)”. The EC50 in test [2] (setting [5]) is below 100 nM.

`C=CC(=O)Nc1ccccc1Nc1nc(Nc2ccc(N3CCN(C(C)=O)CC3)cc2OC)ncc1C(F)(F)F` [Compound I-66, N-(2-((2-((4-(4-Acetylpiperazin-1-yl)-2-methoxyphenyl)amino)-5-(trifluoromethyl)pyrimidin-4-yl)amino)phenyl)acrylamide]: the GI50 in the test with HT-29 cells lay in the range of 101 to 500 nM. Besides, at Erk1 [1], the “ERK1 Mass Mod (%)” value was “E (key: E: provided a mass modification of ≧70%; F: provided a mass modification of 31-69%; G: proived a mass modification ≦30%)”.

`C=CC(=O)Nc1ccccc1Nc1nc(Nc2ccc(N3CCN(C(C)=O)CC3)cc2OC)ncc1Cl` [Compound I-149, N-(2-((2-((4-(4-acetylpiperazin-1-yl)-2-methoxyphenyl)amino)-5-chloropyrimidin-4-yl)amino)phenyl)acrylamide] came in with a concentration for 50% growth inhibition (GI50) in the test on HT-29 cells of 101 to 500 nM. At Erk1 [1], the “ERK1 Mass Mod (%)” value was “E (key: E: provided a mass modification of ≧70%; F: provided a mass modification of 31-69%; G: proived a mass modification ≦30%)”.

With `C=CC(=O)Nc1cc(C)ccc1Nc1nc(Nc2cc(N[C@H]3CC[C@@H](O)CC3)nc(OC)c2)ncc1C(F)(F)F` [Compound I-326, N-(2-((2-((2-((cis-4-hydroxycyclohexyl)amino)-6-methoxypyridin-4-yl)amino)-5-(trifluoromethyl)pyrimidin-4-yl)amino)-5-methylphenyl)acrylamide], in the test with HT-29 cells, the GI50 was below 100 nM. Moreover, the “ERK1 Mass Mod (%)” value on Erk1 [1] is “E (provided a mass modification of ≧70%)”. Besides, the EC50 in test [2] (setting [4]) was below 100 nM.

On to `C=CC(=O)Nc1cc(C)ccc1Nc1nc(N[C@H]2CCCN(C(=O)CF)C2)ncc1C(F)(F)F` [Compound I-43, (S)—N-(2-((2-((1-(2-Fluoroacetyl)piperidin-3-yl)amino)-5-(trifluoromethyl)pyrimidin-4-yl)amino)-5-methylphenyl)acrylamide], for which the 50% growth inhibitory concentration (GI50) in the test with HT-29 cells is below 100 nM. On Erk1 [1], the “ERK1 Mass Mod (%)” value is given as “E (provided a mass modification of ≧70%)”. Further, on MEK1 activated ERK1, the IC50 is below 100 nM. Besides, the concentration giving a half-maximal response (EC50) in test [2] (setting [4]) is 101 to 500 nM.

As to `C=CC(=O)Nc1cc(C)ccc1Nc1nc(Nc2ncc(F)c(OC)n2)ncc1C(F)(F)F` [Compound I-356, N-(2-((2-((5-fluoro-4-methoxypyrimidin-2-yl)amino)-5-(trifluoromethyl)pyrimidin-4-yl)amino)-5-methylphenyl)acrylamide], in the test on HT-29 cells, the GI50 fell in the range of 101 to 500 nM. For the same compound, the “ERK1 Mass Mod (%)” value on Erk1 [1] is reported as “E (provided a mass modification of ≧70%)”.

For `C=CC(=O)Nc1cc(C)ccc1Nc1nc(Nc2cc(NC3CCC(C)(O)CC3)nc(OC)c2)ncc1C(F)(F)F` (stereo not drawn) [Compound I-327, N-(2-((2-((2-((trans-4-hydroxy-4-methylcyclohexyl)amino)-6-methoxypyridin-4-yl)amino)-5-(trifluoromethyl)pyrimidin-4-yl)amino)-5-methylphenyl)acrylamide], the GI50 in the test with HT-29 cells is below 100 nM. Moreover, the “ERK1 Mass Mod (%)” value on Erk1 [1] was “E (key: E: provided a mass modification of ≧70%; F: provided a mass modification of 31-69%; G: proived a mass modification ≦30%)”. Moreover, the EC50 in test [2] (setting [5]) was below 100 nM.

`C=CC(=O)Nc1ccccc1Nc1nc(Nc2cc(N[C@H]3CC[C@@H](O)CC3)nc(OC)c2)ncc1C(F)(F)F` [Compound I-292] gave a GI50 in the test on HT-29 cells below 100 nM. Moreover, the “ERK1 Mass Mod (%)” value on Erk1 [1] is listed as “E (provided a mass modification of ≧70%)”. Also, the EC50 in test [2] (setting [4]) is below 100 nM.

`C=CC(=O)Nc1cc(OC)ccc1Nc1nc(Nc2ccc(N3CCN(C(C)=O)CC3)cc2OC)ncc1Cl` [Compound I-152, N-(2-((2-((4-(4-acetylpiperazin-1-yl)-2-methoxyphenyl)amino)-5-chloropyrimidin-4-yl)amino)-5-methoxyphenyl)acrylamide]: the GI50 in the test with HT-29 cells fell in the range of 501 to 999 nM. The “ERK1 Mass Mod (%)” value at Erk1 [1] was “E (provided a mass modification of ≧70%)”.

The term GI50 denotes the concentration that inhibits growth by half. A lower GI50 goes with more potent growth inhibition. The EC50 is the concentration at which the effect is half-maximal. What is called IC50 is the midpoint of a concentration-inhibition curve.
